These results are taken from patent US20230286958A1, “PLASMA KALLIKREIN INHIBITORS” (Merck Sharp & Dohme LLC, priority 2020, published 2023).

Bounds are passed on as bounds.

Assay [1] addresses Human plasma kallikrein (Homo sapiens (Human), UniProt P03952). Briefly: Kallikrein Assay (fluorogenic substrate Acetyl-K-P-R-AFC). The class given is biochemical. Particulars: Plasma Kallikrein (PKal). The procedure:
(§1) The effectiveness of a compound of the present invention as an inhibitor of Kallikrein can be determined using a relevant purified serine protease, and an appropriate synthetic substrate. The rate of hydrolysis of the chromogenic or fluorogenic substrate by the relevant serine protease was measured both in the absence and presence of compounds of the present invention. Assays were conducted at room temperature or at 37° C. […] A decrease in the rate of fluorescence change in the presence of inhibitor is indicative of enzyme inhibition. Such methods are known to one skilled in the art. The results of this assay are expressed as the half-maximal inhibitory concentrations (IC50), or the inhibitory constant, Ki.
Kallikrein determinations were made in 50 mM HEPES buffer at pH 7.4 containing 150 mM NaCl, 5 mM CaC12, and 0.1% PEG 8000 (polyethylene glycol; Fisher Scientific). Determinations were made using purified Human plasma kallikrein at a final concentration of 0.5 nM (Enzyme Research Laboratories) and the synthetic substrate, Acetyl-K-P-R-AFC (Sigma # C6608) at a concentration of […].
Times required to achieve equilibration between enzyme and inhibitor were determined in control experiments. […] IC50 was determined by inflection point from a four parameter logistic curve fit. Ki was calculated using the Cheng Prusoff equation, Ki = IC50/(1+([S]/Km)).

Assay [2] addresses human Factor XIa (Homo sapiens (Human), UniProt P03951). Briefly: Factor XIa Assay (fluorogenic substrate GPR-AFC). The class given is biochemical. Conditions: Factor XIa (FXIa). The procedure: as §1, with “Coagulation Factor XIa” for “Kallikrein”
Compounds were pre-incubated for 30 minutes at 25° C. with human (0.04 nM) Factor XIa in 50 mM HEPES buffer with 150 mM sodium chloride, 5 mM calcium chloride, 0.1% PEG 8000, pH 7.4. […] The % inhibition for each data point was calculated from the data and analyzed using the log (inhibitor) vs. response four parameters equation to determine the half-maximal inhibitory concentrations (IC50). The IC50 were converted to equilibrium inhibitory constants (Ki) using the Cheng-Prusoff equation.

Sequence of Human plasma kallikrein (P03952 391-638): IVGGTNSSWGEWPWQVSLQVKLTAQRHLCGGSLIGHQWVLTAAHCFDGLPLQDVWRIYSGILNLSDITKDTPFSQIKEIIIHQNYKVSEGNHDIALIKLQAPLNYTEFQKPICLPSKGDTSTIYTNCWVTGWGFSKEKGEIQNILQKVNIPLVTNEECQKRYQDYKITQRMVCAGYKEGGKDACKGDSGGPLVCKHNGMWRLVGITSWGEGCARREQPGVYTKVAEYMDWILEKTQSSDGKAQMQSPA
Sequence of Human plasma kallikrein (P03952 20-390 partner): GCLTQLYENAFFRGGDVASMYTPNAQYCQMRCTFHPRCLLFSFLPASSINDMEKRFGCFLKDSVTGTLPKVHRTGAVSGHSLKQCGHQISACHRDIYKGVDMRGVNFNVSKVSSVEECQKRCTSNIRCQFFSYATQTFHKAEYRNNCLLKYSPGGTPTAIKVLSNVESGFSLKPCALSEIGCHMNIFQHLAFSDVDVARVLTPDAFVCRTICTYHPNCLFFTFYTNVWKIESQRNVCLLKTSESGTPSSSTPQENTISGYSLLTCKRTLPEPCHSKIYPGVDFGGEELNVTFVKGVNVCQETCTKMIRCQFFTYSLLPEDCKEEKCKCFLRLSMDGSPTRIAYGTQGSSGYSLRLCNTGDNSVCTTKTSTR
Sequence of human Factor XIa (P03951 388-625 limits assumed): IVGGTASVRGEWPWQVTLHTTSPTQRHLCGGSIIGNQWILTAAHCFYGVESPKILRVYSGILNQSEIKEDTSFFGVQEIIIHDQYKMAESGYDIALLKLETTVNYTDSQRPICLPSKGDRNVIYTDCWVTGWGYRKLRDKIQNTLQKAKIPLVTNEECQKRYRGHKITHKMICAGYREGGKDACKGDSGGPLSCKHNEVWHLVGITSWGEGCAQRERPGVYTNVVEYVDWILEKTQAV
Sequence of human Factor XIa (P03951 19-387 partner limits assumed): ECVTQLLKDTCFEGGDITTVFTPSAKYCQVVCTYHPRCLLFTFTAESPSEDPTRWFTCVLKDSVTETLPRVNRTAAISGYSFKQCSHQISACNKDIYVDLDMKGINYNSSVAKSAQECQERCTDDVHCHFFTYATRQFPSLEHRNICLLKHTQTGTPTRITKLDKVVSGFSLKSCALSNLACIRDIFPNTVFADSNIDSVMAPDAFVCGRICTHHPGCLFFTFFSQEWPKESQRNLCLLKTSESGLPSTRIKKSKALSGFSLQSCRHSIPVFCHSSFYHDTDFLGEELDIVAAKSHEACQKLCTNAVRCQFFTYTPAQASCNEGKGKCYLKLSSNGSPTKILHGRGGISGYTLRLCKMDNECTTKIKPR

For `CC(c1cnc(N2C[C@H]3C[C@H]3C2=O)c2c1OCO2)n1cc(NC(=O)c2cncc(-c3c(C(F)F)ccc(Cl)c3F)n2)cn1` (single isomer, unassigned) [Example 250, 6-(3-Chloro-6-(difluoromethyl)-2-fluorophenyl)-N-(1-((R or S)-1-(4-((1R,5S)-2-oxo-3-azabicyclo[3.1.0]hexan-3-yl)-[1,3]dioxolo[4,5-c]pyridin-7-yl)ethyl)-1H-pyrazol-4-yl)pyrazine-2-carboxamide], the IC50 (in general, the midpoint of a concentration-inhibition curve) in assay [1] amounted to 3.2 nM; in assay [2], 1320 nM.
For the molecule `Cc1cc(C(C)n2cc(NC(=O)c3cncc(-c4c(C(F)F)ccc(Cl)c4F)n3)cn2)cnc1N1C[C@H]2C[C@H]2C1=O` (single isomer, unassigned) [Example 66, 6-(3-Chloro-6-(difluoromethyl)-2-fluorophenyl)-N-(1-((S or R)-1-(5-methyl-6-((1R,5S)-2-oxo-3-azabicyclo[3.1.0]hexan-3-yl)pyridin-3-yl)ethyl)-1H-pyrazol-4-yl)pyrazine-2-carboxamide], the IC50 in assay [1] is 0.6 nM; in assay [2], 1630 nM.
With `Cc1nc(N2C[C@H]3C[C@H]3C2=O)ncc1Cn1cc(NC(=O)c2nc(-c3c(C(F)F)ccc(Cl)c3F)cnc2C)nn1` [Example 183, 6-(3-Chloro-6-(difluoromethyl)-2-fluorophenyl)-3-methyl-N-(1-((4-methyl-2-((1R,5S)-2-oxo-3-azabicyclo[3.1.0]hexan-3-yl)pyrimidin-5-yl)methyl)-1H-1,2,3-triazol-4-yl)pyrazine-2-carboxamide], the values for the IC50 in assay [1] and in assay [2] were 30.6 nM and above 10000 nM, respectively.
Regarding `Cc1nc(C(C)n2cc(NC(=O)c3cncc(-c4c(C(F)F)ccc(Cl)c4F)n3)cn2)cnc1N1C[C@H]2C[C@H]2C1=O` (single isomer, unassigned) [Example 12, 6-(3-Chloro-6-(difluoromethyl)-2-fluorophenyl)-N-(1-((S or R)-1-(6-methyl-5-((1R,5S)-2-oxo-3-azabicyclo[3.1.0]hexan-3-yl)pyrazin-2-yl)ethyl)-1H-pyrazol-4-yl)pyrazine-2-carboxamide], the figures for the IC50 in assay [1] and in assay [2] were 1.9 nM and 1160 nM, respectively.
For `Cc1ncc(-c2c(OC(F)F)ccc(Cl)c2F)nc1C(=O)Nc1cnn(C(C)c2cnc(N3C[C@H]4C[C@H]4C3=O)c(F)c2C)c1` (single isomer, unassigned) [Example 129, 6-(3-Chloro-6-(difluoromethoxy)-2-fluorophenyl)-N-(1-((S or R)-1-(5-fluoro-4-methyl-6-((1R,5S)-2-oxo-3-azabicyclo[3.1.0]hexan-3-yl)pyridin-3-yl)ethyl)-IH-pyrazol-4-yl)-3-methylpyrazine-2-carboxamide] the same measures were 4.3 nM and 3210 nM.
For `Cc1nc(N2C[C@@H]3C[C@@H]3C2=O)ncc1[C@@H](CO)n1cc(NC(=O)c2cncc(-c3c(C(F)F)ccc(Cl)c3F)n2)cn1` [Example 157, 6-(3-Chloro-6-(difluoromethyl)-2-fluorophenyl)-N-(1-((S)-2-hydroxy-1-(4-methyl-2-((1S,5R)-2-oxo-3-azabicyclo[3.1.0]hexan-3-yl)pyrimidin-5-yl)ethyl)-1H-pyrazol-4-yl)pyrazine-2-carboxamide] the same measures were 1020 nM and above 10000 nM.
For `Cc1nc(N2C[C@H]3C[C@H]3C2=O)c(F)cc1C(C)n1cc(NC(=O)c2cncc(-c3c(C(F)F)ccc(Cl)c3F)n2)cn1` (some centres unmarked) [Example 151, 6-(3-Chloro-6-(difluoromethyl)-2-fluorophenyl)-N-(1-(1-(5-fluoro-2-methyl-6-((1R.5S)-2-oxo-3-azabicyclo[3.1.0]hexan-3-yl)pyridin-3-yl)ethyl)-1H-pyrazol-4-yl)pyrazine-2-carboxamide] the same measures were 5.8 nM and above 10000 nM.
Consider `Cc1cc(N2C[C@H]3C[C@H]3C2=O)ccc1C(C)n1cc(NC(=O)c2cncc(-c3c(C(F)F)ccc(Cl)c3F)n2)cn1` (single isomer, unassigned) [Example 99, 6-(3-Chloro-6-(difluoromethyl)-2-fluorophenyl)-N-(1-((R or S)-1-(2-methyl-4-((1R,5S)-2-oxo-3-azabicyclo[3.1.0]hexan-3-yl)phenyl)ethyl)-1H-pyrazol-4-yl)pyrazine-2-carboxamide], for which the values for the IC50 in assay [1] and in assay [2] were 49.1 nM and 2880 nM, respectively.
`Cc1c(C(C)n2cc(NC(=O)c3nc(-c4c(C(F)F)ccc(Cl)c4F)cnc3CO)cn2)cnc(N2C[C@H]3C[C@H]3C2=O)c1C` (single isomer, unassigned) [Example 202, 6-(3-Chloro-6-(difluoromethyl)-2-fluorophenyl)-N-(1-((R or S)-1-(4,5-dimethyl-6-((1R,5S)-2-oxo-3-azabicyclo[3.1.0]hexan-3-yl)pyridin-3-yl)ethyl)-1H-pyrazol-4-yl)-3-(hydroxymethyl)pyrazine-2-carboxamide]: the IC50 in assay [1] turned out to be 0.3 nM; in assay [2] it was 11 nM.
Taken in the same sequence, the figures for `Cc1cc(C(C)n2cc(NC(=O)c3nc(-c4c(C(F)F)ccc(Cl)c4F)cnc3C(C)O)cn2)nnc1N1C[C@H]2C[C@H]2C1=O` (single isomer, unassigned) [Example 229, 6-(3-Chloro-6-(difluoromethyl)-2-fluorophenyl)-3-((R or S)-1-hydroxyethyl)-N-(1-((S or R)-1-(5-methyl-6-((1R,5S)-2-oxo-3-azabicyclo[3.1.0]hexan-3-yl)pyridazin-3-yl)ethyl)-1H-pyrazol-4-yl)pyrazine-2-carboxamide] were 0.37 nM and 178 nM.
With `Cc1ncc(-c2c(C#N)ccc(Cl)c2F)nc1C(=O)Nc1cnn(C(C)c2cnc(N3C[C@H]4C[C@H]4C3=O)c(C)n2)c1` (single isomer, unassigned) [Example 235, 6-(3-Chloro-6-cyano-2-fluorophenyl)-3-methyl-N-(1-((S or R)-1-(6-methyl-5-((1R,5S)-2-oxo-3-azabicyclo[3.1.0]hexan-3-yl)pyrazin-2-yl)ethyl)-1H-pyrazol-4-yl)pyrazine-2-carboxamide], the IC50 in assay [1] is 0.4 nM; in assay [2], 2060 nM.
Regarding `Cc1cc(C(C)n2cc(NC(=O)c3nc(-c4c(OC(F)F)ccc(Cl)c4F)cnc3C)cn2)cnc1N1C[C@H]2C[C@H]2C1=O` (single isomer, unassigned) [Example 131, 6-(3-Chloro-6-(difluoromethoxy)-2-fluorophenyl)-3-methyl-N-(1-((S or R)-1-(5-methyl-6-((1R,5S)-2-oxo-3-azabicyclo[3.1.0]hexan-3-yl)pyridin-3-yl)ethyl)-1H-pyrazol-4-yl)pyrazine-2-carboxamide], the IC50 came out at 0.5 nM in assay [1] and 545 nM in assay [2].
For `Cc1cc(N2C[C@H]3C[C@H]3C2=O)cnc1C(C)n1cc(NC(=O)c2cncc(-c3c(C(F)F)ccc(Cl)c3F)n2)cn1` (single isomer, unassigned) [Example 62, 6-(3-Chloro-6-(difluoromethyl)-2-fluorophenyl)-N-(1-((S or R)-1-(3-methyl-5-((1R,5S)-2-oxo-3-azabicyclo[3.1.0]hexan-3-yl)pyridin-2-yl)ethyl)-1H-pyrazol-4-yl)pyrazine-2-carboxamide], the values for the IC50 in assay [1] and in assay [2] were 4.2 nM and 7630 nM, respectively.
Taken in the same sequence, the figures for `Cc1ncc(-c2c(C(F)F)ccc(Cl)c2F)nc1C(=O)Nc1cnn(C(C)c2cnc(N3C[C@H]4C[C@H]4C3=O)c(OC(F)F)c2C)c1` (single isomer, unassigned) [Example 225] were 0.9 nM and 5740 nM.
As for `Cc1cc(Cn2ncc(NC(=O)c3nc(-c4c(C(F)F)ccc(Cl)c4F)cnc3C)n2)cnc1N1C[C@H]2C[C@H]2C1=O` [Example 187, 6-(3-Chloro-6-(difluoromethyl)-2-fluorophenyl)-3-methyl-N-(2-((5-methyl-6-((1R,5S)-2-oxo-3-azabicyclo[3.1.0]hexan-3-yl)pyridin-3-yl)methyl)-2H-1,2,3-triazol-4-yl)pyrazine-2-carboxamide], the IC50 in assay [1] worked out at 4.3 nM; in assay [2] it was 5670 nM.
Taken in the same sequence, the figures for `CC(c1cnc(N2C[C@H]3C[C@H]3C2=O)c2c1OCO2)n1cc(NC(=O)c2cncc(-c3c(C(F)F)ccc(Cl)c3F)n2)cn1` (single isomer, unassigned) [Example 251, 6-(3-Chloro-6-(difluoromethyl)-2-fluorophenyl)-N-(1-((R or S)-1-(4-((1R,5S)-2-oxo-3-azabicyclo[3.1.0]hexan-3-yl)-[1,3]dioxolo[4,5-c]pyridin-7-yl)ethyl)-1H-pyrazol-4-yl)pyrazine-2-carboxamide] were 1 nM and 2480 nM.
